Results on 16 compounds are retold here after ChEMBL document CHEMBL1795255, “Discovery and optimization of potent and selective benzonaphthyridinone analogs as small molecule mTOR inhibitors with improved mouse microsome stability” (Bioorg Med Chem Lett, 2011).

For orientation: IC50 means the point on the concentration scale where inhibition reaches its midpoint. A higher IC50 goes with a need for much substance. Usually EC50 stands for the concentration needed to bring the measured effect to its halfway point. The low end stands for greater potency, the high end for weaker potency. In general, Cmax refers to the maximum level reached in the sampled fluid or tissue. Usually Tmax stands for the time at which the peak concentration occurs. Usually AUC(0-inf) stands for total exposure, with the tail of the curve extrapolated. Low values mean low exposure, high ones high exposure. Usually Vdss stands for the apparent volume that relates the amount in the body to the concentration in plasma or blood. Low values mean confinement near the circulation, high ones extensive tissue distribution. In general, inhibition refers to the relative decrease from the control value, in per cent. Low values mean a response near the control, high ones a response far below the control. Broadly, the clearance is the volume of plasma or blood freed of the substance per unit of time. Read a low clearance as a low capacity for elimination. Broadly, the bioavailability is dose-corrected exposure relative to a reference, in per cent.

Data set [1] in a line: Inhibition of mTORC1.
The target of data set [2] is Serine/threonine-protein kinase mTOR (Mus musculus, UniProt Q9JLN9). Description: Inhibition of mTOR-dependent S6K phosphorylation at T389 residue in MEF cells. The data set is classed as cell-based.
Data set [3] is described as follows: Inhibition of PI3K-dependent Akt phosphorylation at T308 residue in human PC3 cells. Format: cell-based. Conditions: PC-3.
Data set [4] concerns Mus musculus. Description: (§1) Cmax in iv dosed mouse. The data set is classed as ADME, organism-based. Set-up: route intravenous. The settings on record: in vivo.
Data set [5] concerns Mus musculus. The data set is described as follows: (§2) Cmax in po dosed mouse. The data set is classed as ADME, organism-based. The arrangement: route oral. Conditions: in vivo.
Data set [6] has as its system Mus musculus. Description: (§3) Tmax in po dosed mouse. Format: ADME, organism-based. Conditions: in vivo.
The nature of data set [7]: AUC (0 to infinity) in iv dosed mouse. The data set is classed as ADME, organism-based. The arrangement: time infinity, route intravenous. The settings on record: plasma.
A short description of data set [8]: AUC (0 to infinity) in po dosed mouse. Set-up: route oral, time infinity. The data set is classed as ADME, organism-based. Conditions: plasma.
Data set [9] relates to Mus musculus. The data set is described as follows: (§4) Volume of distribution at steady state in iv dosed mouse. The data set is classed as ADME, organism-based. Conditions: in vivo.
The target in data set [10] is T1, Serine/threonine-protein kinase mTOR (Homo sapiens, UniProt P42345). Description: Inhibition of mTOR.
Data set [11] addresses T1, Serine/threonine-protein kinase mTOR. The data set is described as follows: Inhibition of mTOR-dependent S6K phosphorylation at T389 residue in liver at 20 mg/kg after 6 hrs by in vivo pharmacodynamic study. Format: organism-based. The arrangement: dose 20 mg/kg.
The target is the same in data set [12]. Description: Inhibition of mTOR-dependent AKT phosphorylation at S473 residue in lung at 20 mg/kg after 6 hrs by in vivo pharmacodynamic study. Format: organism-based. The arrangement: dose 20 mg/kg.
Data set [13] has the same target. The data set is described as follows: Inhibition of mTOR-dependent AKT phosphorylation at S473 residue in liver at 20 mg/kg after 6 hrs by in vivo pharmacodynamic study. Format: organism-based. Set-up: dose 20 mg/kg.
A short description of data set [14]: Metabolic stability in mouse microsomes in presence of NADPH. The data set is classed as ADME, Microsome. Conditions: read-out: Stability.
Data set [15] addresses CYP3A4 (Homo sapiens, UniProt P08684). The data set is described as follows: Inhibition of CYP3A4 at 10 uM. The data set is classed as ADME.
Data set [16] concerns the target T1, Serine/threonine-protein kinase mTOR. The data set is described as follows: Inhibition of mTOR-dependent S6K phosphorylation at T389 residue in lung at 20 mg/kg after 6 hrs by in vivo pharmacodynamic study. Set-up: dose 20 mg/kg. Format: organism-based.
Data set [17] is described as follows: as §1. Format: ADME, organism-based. The arrangement: route intravenous. Conditions: in vivo.
A short description of data set [18]: as §2. The arrangement: route oral. The settings on record: in vivo. Format: ADME, organism-based.
Data set [19] is described as follows: as §3. The data set is classed as ADME, organism-based. Conditions: in vivo.
The nature of data set [20]: Half life in iv dosed mouse. The data set is classed as ADME, organism-based. The settings on record: in vivo.
A short description of data set [21]: Clearance in iv dosed mouse. The data set is classed as ADME, organism-based. Conditions: in vivo.
Data set [22] in a line: as §4. The settings on record: in vivo, read-out: Vdss. The data set is classed as ADME, organism-based.
Data set [23] in a line: Oral bioavailability in mouse. The data set is classed as ADME, organism-based. Conditions: in vivo.
Data set [24] deals with Phosphatidylinositol 4-kinase alpha (Homo sapiens, UniProt P42356). Description: Inhibition of PI4K alpha.
Data set [25] has as its target Phosphatidylinositol 4-kinase beta (Homo sapiens, UniProt Q9UBF8). The data set is described as follows: Inhibition of PI4K beta.
Data set [26] concerns the target Phosphatidylinositol 4-phosphate 3-kinase C2 domain-containing subunit alpha (Homo sapiens, UniProt O00443). The data set is described as follows: Inhibition of PI3K C2alpha.
The target in data set [27] is Phosphatidylinositol 4-phosphate 3-kinase C2 domain-containing subunit beta (Homo sapiens, UniProt O00750). Description: Inhibition of PI3K C2beta.
Data set [28] addresses Phosphatidylinositol 3-kinase catalytic subunit type 3 (Homo sapiens, UniProt Q8NEB9). The data set is described as follows: Inhibition of human VPS34.
The target of data set [29] is PI3-kinase p110-alpha/p85-alpha (Homo sapiens, UniProt P42336). Description: Inhibition of P110alpha/p85alpha. The data set is classed as protein-complex assay.
Chain of PI3-kinase p110-alpha/p85-alpha (P27986 whole entry): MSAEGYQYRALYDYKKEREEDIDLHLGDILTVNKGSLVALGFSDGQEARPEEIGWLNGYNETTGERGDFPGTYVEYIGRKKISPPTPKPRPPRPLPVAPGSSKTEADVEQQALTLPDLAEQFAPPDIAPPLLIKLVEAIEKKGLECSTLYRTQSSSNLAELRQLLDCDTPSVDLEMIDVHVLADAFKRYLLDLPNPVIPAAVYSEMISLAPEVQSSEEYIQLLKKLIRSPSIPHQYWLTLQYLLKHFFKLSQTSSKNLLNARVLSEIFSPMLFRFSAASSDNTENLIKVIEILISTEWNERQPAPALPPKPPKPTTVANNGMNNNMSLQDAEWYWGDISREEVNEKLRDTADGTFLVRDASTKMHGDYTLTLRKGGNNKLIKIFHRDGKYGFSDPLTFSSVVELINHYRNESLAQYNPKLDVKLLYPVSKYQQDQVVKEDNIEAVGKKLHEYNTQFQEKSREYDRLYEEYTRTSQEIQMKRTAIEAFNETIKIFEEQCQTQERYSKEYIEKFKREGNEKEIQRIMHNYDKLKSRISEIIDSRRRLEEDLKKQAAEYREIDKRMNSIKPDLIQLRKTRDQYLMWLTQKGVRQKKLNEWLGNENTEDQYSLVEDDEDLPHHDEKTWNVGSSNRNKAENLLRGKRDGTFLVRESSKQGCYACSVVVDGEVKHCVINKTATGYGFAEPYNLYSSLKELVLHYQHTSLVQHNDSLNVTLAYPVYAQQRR
Chain of PI3-kinase p110-alpha/p85-alpha (P42336 whole entry): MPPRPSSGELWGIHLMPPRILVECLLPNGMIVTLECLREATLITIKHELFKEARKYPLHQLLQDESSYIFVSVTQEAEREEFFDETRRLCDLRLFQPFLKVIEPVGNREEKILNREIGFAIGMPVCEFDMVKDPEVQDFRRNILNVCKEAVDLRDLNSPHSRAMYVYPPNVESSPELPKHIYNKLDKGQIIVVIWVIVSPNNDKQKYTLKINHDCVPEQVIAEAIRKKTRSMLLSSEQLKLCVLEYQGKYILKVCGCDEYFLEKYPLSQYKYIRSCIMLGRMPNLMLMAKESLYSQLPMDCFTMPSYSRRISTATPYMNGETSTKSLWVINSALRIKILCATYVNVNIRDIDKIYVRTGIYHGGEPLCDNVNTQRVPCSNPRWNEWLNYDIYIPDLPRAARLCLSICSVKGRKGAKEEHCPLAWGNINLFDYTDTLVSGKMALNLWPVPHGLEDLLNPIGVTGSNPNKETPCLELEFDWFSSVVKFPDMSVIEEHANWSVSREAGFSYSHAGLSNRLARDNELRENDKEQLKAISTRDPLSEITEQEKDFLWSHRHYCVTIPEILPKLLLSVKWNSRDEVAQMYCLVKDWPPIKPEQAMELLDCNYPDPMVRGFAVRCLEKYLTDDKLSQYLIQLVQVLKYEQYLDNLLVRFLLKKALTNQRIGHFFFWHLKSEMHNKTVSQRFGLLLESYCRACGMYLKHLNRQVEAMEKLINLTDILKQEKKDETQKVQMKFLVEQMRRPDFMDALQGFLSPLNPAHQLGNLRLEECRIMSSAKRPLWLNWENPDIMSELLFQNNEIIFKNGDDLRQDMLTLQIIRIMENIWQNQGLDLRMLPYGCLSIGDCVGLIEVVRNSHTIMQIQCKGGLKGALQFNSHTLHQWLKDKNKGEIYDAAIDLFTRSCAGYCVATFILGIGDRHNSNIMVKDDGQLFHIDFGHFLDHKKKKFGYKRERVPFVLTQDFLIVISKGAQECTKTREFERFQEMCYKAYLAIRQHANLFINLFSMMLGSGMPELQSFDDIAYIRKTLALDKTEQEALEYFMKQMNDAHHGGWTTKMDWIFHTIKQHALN

Chain of CYP3A4 (P08684 whole entry): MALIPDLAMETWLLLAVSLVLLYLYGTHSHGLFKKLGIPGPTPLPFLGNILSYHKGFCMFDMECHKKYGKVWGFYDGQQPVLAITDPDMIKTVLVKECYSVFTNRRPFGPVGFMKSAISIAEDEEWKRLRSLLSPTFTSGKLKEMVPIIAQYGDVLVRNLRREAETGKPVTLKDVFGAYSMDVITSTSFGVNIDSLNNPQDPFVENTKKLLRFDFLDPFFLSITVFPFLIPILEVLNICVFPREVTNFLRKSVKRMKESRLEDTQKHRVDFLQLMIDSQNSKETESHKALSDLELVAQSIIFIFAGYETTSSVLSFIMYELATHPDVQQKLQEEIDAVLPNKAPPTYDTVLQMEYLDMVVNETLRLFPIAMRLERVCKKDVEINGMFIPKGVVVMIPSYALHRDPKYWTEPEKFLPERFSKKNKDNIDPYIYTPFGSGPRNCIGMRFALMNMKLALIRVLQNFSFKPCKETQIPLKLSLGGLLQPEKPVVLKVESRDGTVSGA
Chain of Phosphatidylinositol 4-phosphate 3-kinase C2 domain-containing subunit alpha (O00443 whole entry, the tested form may be a part): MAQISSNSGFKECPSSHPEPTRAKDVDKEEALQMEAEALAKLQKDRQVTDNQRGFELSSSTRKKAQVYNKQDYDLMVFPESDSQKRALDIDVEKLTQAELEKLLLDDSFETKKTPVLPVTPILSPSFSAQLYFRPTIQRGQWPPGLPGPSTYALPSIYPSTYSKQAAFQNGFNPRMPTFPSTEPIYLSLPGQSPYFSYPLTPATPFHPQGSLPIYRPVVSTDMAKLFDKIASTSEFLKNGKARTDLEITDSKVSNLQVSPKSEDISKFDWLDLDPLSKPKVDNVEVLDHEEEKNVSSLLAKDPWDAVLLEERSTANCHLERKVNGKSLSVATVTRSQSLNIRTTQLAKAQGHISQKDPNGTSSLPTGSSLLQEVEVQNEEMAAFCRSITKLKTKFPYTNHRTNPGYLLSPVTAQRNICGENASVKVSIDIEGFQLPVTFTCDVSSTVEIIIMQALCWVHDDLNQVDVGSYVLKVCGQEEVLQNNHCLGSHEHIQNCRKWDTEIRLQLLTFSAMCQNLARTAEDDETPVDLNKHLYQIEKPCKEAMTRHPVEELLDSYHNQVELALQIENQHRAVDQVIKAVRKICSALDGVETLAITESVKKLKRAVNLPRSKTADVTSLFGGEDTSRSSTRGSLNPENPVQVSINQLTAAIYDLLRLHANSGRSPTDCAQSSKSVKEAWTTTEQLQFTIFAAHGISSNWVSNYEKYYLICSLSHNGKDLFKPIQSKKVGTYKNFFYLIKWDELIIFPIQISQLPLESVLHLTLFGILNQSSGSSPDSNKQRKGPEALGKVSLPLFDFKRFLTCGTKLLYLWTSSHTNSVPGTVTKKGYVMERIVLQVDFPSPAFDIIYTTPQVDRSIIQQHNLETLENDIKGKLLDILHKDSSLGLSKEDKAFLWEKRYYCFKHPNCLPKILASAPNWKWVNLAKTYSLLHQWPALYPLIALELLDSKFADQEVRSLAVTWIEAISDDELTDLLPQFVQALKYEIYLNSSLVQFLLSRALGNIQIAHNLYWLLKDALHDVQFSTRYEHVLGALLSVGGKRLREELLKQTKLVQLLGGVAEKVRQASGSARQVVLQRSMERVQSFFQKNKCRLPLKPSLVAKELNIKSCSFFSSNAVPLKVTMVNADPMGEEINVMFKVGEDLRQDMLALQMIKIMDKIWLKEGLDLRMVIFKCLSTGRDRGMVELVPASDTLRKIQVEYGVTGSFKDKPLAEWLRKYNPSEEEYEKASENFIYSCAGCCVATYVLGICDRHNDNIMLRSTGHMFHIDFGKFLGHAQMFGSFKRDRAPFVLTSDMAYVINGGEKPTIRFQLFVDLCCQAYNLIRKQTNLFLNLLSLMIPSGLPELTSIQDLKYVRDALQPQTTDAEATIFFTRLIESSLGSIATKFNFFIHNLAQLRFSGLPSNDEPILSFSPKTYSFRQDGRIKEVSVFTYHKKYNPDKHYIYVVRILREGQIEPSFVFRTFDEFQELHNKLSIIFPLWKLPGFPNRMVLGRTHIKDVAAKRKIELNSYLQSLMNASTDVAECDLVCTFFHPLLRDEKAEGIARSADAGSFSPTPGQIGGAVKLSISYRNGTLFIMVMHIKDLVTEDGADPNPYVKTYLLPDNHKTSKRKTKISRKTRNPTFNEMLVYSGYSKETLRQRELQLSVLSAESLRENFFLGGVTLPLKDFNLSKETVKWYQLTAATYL
Chain of Phosphatidylinositol 3-kinase catalytic subunit type 3 (Q8NEB9 whole entry): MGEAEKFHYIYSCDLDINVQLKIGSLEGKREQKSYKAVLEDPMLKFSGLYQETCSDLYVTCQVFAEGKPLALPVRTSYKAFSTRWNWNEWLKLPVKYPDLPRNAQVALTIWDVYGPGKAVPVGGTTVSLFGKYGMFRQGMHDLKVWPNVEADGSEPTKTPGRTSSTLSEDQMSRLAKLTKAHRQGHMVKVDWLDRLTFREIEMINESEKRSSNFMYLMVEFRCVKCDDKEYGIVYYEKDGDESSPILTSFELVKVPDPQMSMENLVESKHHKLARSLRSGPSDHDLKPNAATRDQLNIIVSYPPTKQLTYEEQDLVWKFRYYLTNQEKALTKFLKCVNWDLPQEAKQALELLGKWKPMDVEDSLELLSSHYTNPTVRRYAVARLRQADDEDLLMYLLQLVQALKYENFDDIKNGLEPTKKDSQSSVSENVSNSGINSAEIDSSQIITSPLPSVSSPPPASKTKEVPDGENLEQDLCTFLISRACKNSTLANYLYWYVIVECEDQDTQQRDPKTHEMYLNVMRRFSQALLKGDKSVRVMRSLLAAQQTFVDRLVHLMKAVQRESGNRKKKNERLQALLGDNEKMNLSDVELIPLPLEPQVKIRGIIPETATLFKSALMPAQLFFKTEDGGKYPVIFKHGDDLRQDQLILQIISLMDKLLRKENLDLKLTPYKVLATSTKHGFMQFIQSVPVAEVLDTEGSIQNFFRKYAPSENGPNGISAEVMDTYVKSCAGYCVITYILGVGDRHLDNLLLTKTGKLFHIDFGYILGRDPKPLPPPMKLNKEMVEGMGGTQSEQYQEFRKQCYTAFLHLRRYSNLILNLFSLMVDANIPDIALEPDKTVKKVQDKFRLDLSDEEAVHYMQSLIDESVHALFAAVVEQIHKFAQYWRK

Consider `CN1CCC(NC(=O)c2ccc(-c3ccc(-n4c(=O)ccc5cnc6ccc(-c7cnc(N)nc7)cc6c54)cc3C(F)(F)F)cc2)CC1`, for which the IC50 in data set [1] came to 43.2 nM. For the same compound, the EC50 was 10 nM in data set [2] and 1000 nM in data set [3].

`NC(=O)c1ccc(-c2ccc(-n3c(=O)ccc4cnc5ccc(-c6cnc7ccccc7c6)cc5c43)cc2C(F)(F)F)cc1`: 56.3 nM corresponded to half-maximal inhibition in [1] (IC50). The EC50 is 25 nM in data set [2] and > 300 nM in [3].

On to `Cc1cc(-n2c(=O)ccc3cnc4ccc(-c5ccc(N)nc5)cc4c32)ccc1-c1ccc(C(=O)NC2CCN(C)CC2)cc1`, for which half-maximal inhibition in data set [1] (IC50) was put at 39.8 nM. For the same compound, the EC50 is 50 nM in data set [2] and > 1250 nM in data set [3].

Regarding `COC(=O)c1ccc(-c2ccc(-n3c(=O)ccc4cnc5ccc(-c6cnc7ccccc7c6)cc5c43)cc2C(F)(F)F)cc1`, in data set [1], the half-maximal inhibitory concentration (IC50) came to 299 nM. Besides, the EC50 was 200 nM in data set [2] and > 300 nM in [3].

Take `O=c1ccc2cnc3ccc(-c4cnc5ccccc5c4)cc3c2n1-c1ccc(-c2ccc(COC3CCCCO3)cc2)c(C(F)(F)F)c1` (stereo not drawn): the IC50 in [1] came to 188 nM. Also, the values for the 50% effective concentration (EC50) in data set [2] and in [3] were 25 nM and > 300 nM, respectively.

For `CCC(=O)N1CCN(c2ccc(-n3c(=O)ccc4cnc5ccc(-c6cnc7ccccc7c6)cc5c43)cc2C(F)(F)F)CC1` [TORIN1], the values for the Cmax in data set [4] and in data set [5] were 2757 ng/mL and 223 ng/mL, respectively. Also, the Tmax in data set [6] was 0.25 h. For the same compound, the AUC(0-inf) worked out at 720 ng·h/mL in [7] and 396 ng·h/mL in [8]. Also, the distribution volume (Vdss) in data set [9] worked out at 0.59 L/kg.

In the case of `Cc1cc(-n2c(=O)ccc3cnc4ccccc4c32)ccc1-c1ccc(C(=O)NC2CCN(C)CC2)cc1`, in data set [1], the IC50 was > 3000 nM. Also, the results for the EC50 in [2] and in data set [3] were > 1000 nM and > 1250 nM, respectively.

Take `CN1CCC(NC(=O)c2ccc(-c3ccc(-n4c(=O)ccc5cnc6ccc(-c7cnc8ccccc8c7)cc6c54)cc3C(F)(F)F)cc2)CC1`: the IC50 in data set [10] is 3.01 nM; in data set [1], 21.7 nM; in data set [24], > 10000 nM; in data set [25] it was 3440 nM; in data set [26], 1110 nM; in data set [27], 437 nM. Further, the results for the half-maximal inhibitory concentration (IC50) in data set [28] and in [29] were 170 nM and 922 nM, respectively. Moreover, the inhibition in data set [11], in data set [12], in [13] and in data set [16] was 80% in each case. In [2], this compound displayed an EC50 of 5 nM. In addition, the half-life in data set [14] is 0.767 h; in data set [20], 3.61 h. Besides, testing at 10 µM in data set [15] gave an inhibition of 61%. Also, the Cmax in data set [17] is 1410 ng/mL; in data set [18], 191 ng/mL. For the same compound, the Tmax in [19] was determined as 4 h. The AUC(0-inf) is 1390 ng·h/mL in data set [7] and 1410 ng·h/mL in data set [8]. Also, in [21], the clearance was found to be 11.9 mL/min/kg. Also, the Vd in [22] turned out to be 1.95 L/kg. In addition, the bioavailability in [23] was determined as 10.1%.

In data set [1], `O=c1ccc2cnc3ccc(-c4cnc5ccccc5c4)cc3c2n1-c1ccc(-c2ccc(CO)cc2)c(C(F)(F)F)c1` had a concentration for half-maximal inhibition (IC50) of 17.3 nM. For the same compound, the results for the half-maximal effective concentration (EC50) in data set [2] and in [3] were 30 nM and > 300 nM, respectively.

In [1], `CNC(=O)c1ccc(-c2ccc(-n3c(=O)ccc4cnc5ccc(-c6cnc7ccccc7c6)cc5c43)cc2C(F)(F)F)cc1` showed an IC50 of 10.2 nM. In addition, the EC50 in [2] was 15 nM; in data set [3] it was > 300 nM.

In data set [1], `Cc1cc(-n2c(=O)ccc3cnc4ccc(-c5cnc6[nH]ccc6c5)cc4c32)ccc1-c1ccc(C(=O)NC2CCN(C)CC2)cc1` yielded an IC50 of 18.9 nM. In addition, the EC50 in [2] is 25 nM; in data set [3] it was 1000 nM.

In the case of `Cc1cc(-n2c(=O)ccc3cnc4ccc(-c5cn[nH]c5)cc4c32)ccc1-c1ccc(C(=O)NC2CCN(C)CC2)cc1`, the IC50 in [1] is 38.1 nM. The EC50 in [2] was 150 nM; in data set [3], > 1250 nM.

As to `CN1CCC(NC(=O)c2ccc(-c3ccc(-n4c(=O)ccc5cnc6ccc(-c7cn[nH]c7)cc6c54)cc3C(F)(F)F)cc2)CC1`, the IC50 in [1] worked out at 14.1 nM. In addition, the EC50 in data set [2] was found to be 10 nM; in data set [3] it was 1000 nM.

The compound `Cc1cc(-n2c(=O)ccc3cnc4ccc(-c5cnc6ccccc6c5)cc4c32)ccc1-c1ccc(C(=O)NC2CCN(C)CC2)cc1` gave an IC50 in data set [1] of 14.5 nM. The half-maximal effective concentration (EC50) was 1 nM in data set [2] and 1000 nM in data set [3]. The half-life in data set [14] was 0.7 h; in [20] it was 1.85 h. In data set [15], the inhibition at 10 µM came to 34%. In addition, the values for the Cmax in [17] and in [18] were 1050 ng/mL and 115 ng/mL, respectively. In addition, in [19], the Tmax turned out to be 1 h. Moreover, the AUC(0-inf) in data set [7] was 737 ng·h/mL; in [8], 391 ng·h/mL. The compound also yielded a clearance in [21] of 22.6 mL/min/kg. Further, in data set [22], the Vd was 1.82 L/kg. This compound gave a bioavailability in data set [23] of 5.4%.

In the case of `O=C(O)c1ccc(-c2ccc(-n3c(=O)ccc4cnc5ccc(-c6cnc7ccccc7c6)cc5c43)cc2C(F)(F)F)cc1`, in [1], 22.9 nM corresponded to half-maximal inhibition (IC50). Also, the results for the EC50 in [2] and in data set [3] were 20 nM and > 300 nM, respectively.

In data set [1], `Cc1cc(-n2c(=O)ccc3cnc4ccc(-c5cnn(C)c5)cc4c32)ccc1-c1ccc(C(=O)NC2CCN(C)CC2)cc1` yielded an IC50 of 283 nM. Moreover, the EC50 in data set [2] is 150 nM; in [3] it was > 1250 nM.
